Measured values taken from publication PMC5908134, “Saccharomyces cerevisiae as a platform for assessing sphingolipid lipid kinase inhibitors” (PLoS ONE, 2018).
“Also recorded” adds a separate entry of the source.

Legend:
[1] = target: T1, human SphK2 (Homo sapiens, UniProt Q9NRA0); assay: LCMS of phospho-LCBs in yeast expressing human SphK2; format: cell-based; details: yeast with pGAL-HsSPHK2, galactose media, 6 hours, inhibitor 300 nM
T1 construct: full length (wild type hSK2); expressed in transfected cells; host or cells: Saccharomyces cerevisiae CBY169 or KYA1, plasmid pGAL-HsSPHK2
T1 sequence (Q9NRA0 1-618 isoform Q9NRA0-2): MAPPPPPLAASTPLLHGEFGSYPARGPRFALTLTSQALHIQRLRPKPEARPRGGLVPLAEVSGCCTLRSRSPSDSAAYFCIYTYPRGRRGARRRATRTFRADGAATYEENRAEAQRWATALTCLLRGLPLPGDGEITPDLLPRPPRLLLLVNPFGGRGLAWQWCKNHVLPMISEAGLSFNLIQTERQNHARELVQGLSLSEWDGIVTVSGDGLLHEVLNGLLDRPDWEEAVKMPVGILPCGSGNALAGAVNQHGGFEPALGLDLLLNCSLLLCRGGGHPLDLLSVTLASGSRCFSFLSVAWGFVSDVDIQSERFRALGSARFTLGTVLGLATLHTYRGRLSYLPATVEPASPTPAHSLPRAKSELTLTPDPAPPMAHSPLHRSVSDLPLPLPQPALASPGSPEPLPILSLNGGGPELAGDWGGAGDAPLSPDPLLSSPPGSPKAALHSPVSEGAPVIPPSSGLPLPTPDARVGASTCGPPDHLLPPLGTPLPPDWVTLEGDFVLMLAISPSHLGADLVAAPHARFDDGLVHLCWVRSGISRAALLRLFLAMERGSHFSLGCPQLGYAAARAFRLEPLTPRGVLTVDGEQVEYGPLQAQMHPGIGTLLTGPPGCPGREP
Procedure: Cell pellets (approximately 5 million cells) were mixed with 2 mL of a 3:1 methanol/chloroform mixture and transferred to a capped glass vial. To this suspension was added 10 μL of internal standard solution containing 1 μM d7S1P (deuterated sphingosine 1-phosphate) (Avanti Polar Lipids). The mixture was homogenized in a bath sonicator for 10 min and incubated at 48°C for 16 h. The mixture was then cooled to room temperature and mixed with 200 μL of 1 M KOH in methanol. The samples were again sonicated and incubated at 37°C for 2 h. After this time, the samples were neutralized through the addition of 20 μL of glacial acetic acid and transferred to 2 mL microcentrifuge tubes. […] Immediately before LCMS analysis, the material was dissolved in 300 μL of methanol, clarified by centrifuged at 12,000 x g for 12 min at 4°C, and analyzed by LCMS.
Analyses were performed using a triple quadrupole mass spectrometer (Sciex 4000 Q-Trap) coupled to a Shimadzu LC-20AD liquid chromatography system. […] Sphingolipids were detected using MRM (multiple reaction monitoring) methods as follows: d7S1P (387.4→271.3); dhS1P (382.4→266.4); dhSph (dihydroSphingosine) (302.5→60.0); phytoS1P (398.3→300.4) and phytosSph (318.4→282.3).
Yeast were cultured for 6 hours in the indicated media; inhibitors were present at 300 nM. Sphingolipids in cell pellets were analyzed by LCMS (see Methods for details).

[2] = target: T1, human SphK2; assay: yeast growth rescue assay, strain CBY169 expressing human SphK2; format: cell-based
Source text: (§1) The plasmids pGAL-HsSPHK1, pGAL-HsSPHK2, pGAL-MmSphk1, pGAL-MmSphk1L277M, pGAL-MmSphk2, pGAL-HsCERK and pGAL-SK2_MOD used in this study were constructed by sub-cloning DNA encoding the indicated translational open reading frames into the pYES2-FLAG-URA expression vector (provided by Dr. Cungui Mao). […] Excepting human and mouse SphK2, the DNA sequences are synthetic (from GeneWiz LLC (South Plainfield, NJ)) and were optimized for expression in S. cerevisiae.

[3] = target: T2, human SphK2 deletion mutant 11–1 (12–137 & 371–436 deleted) (Homo sapiens, UniProt Q9NRA0, D462G/DEL396-461/E171D/G163S/G648A); assay: yeast growth rescue, CBY169, human SphK2 deletion mutant 11–1; format: cell-based; details: mutant 11–1 (191 aa deleted)
T2 construct: a set of mutants lacking portions of the non-SphK1 overlapping amino acids of human SphK2; expressed in transfected cells; host or cells: Saccharomyces cerevisiae CBY169
T2 sequence (Q9NRA0 with tags, fused parts or gaps isoform Q9NRA0-2 G127S/E135D/DEL360-425/D426G/G612A): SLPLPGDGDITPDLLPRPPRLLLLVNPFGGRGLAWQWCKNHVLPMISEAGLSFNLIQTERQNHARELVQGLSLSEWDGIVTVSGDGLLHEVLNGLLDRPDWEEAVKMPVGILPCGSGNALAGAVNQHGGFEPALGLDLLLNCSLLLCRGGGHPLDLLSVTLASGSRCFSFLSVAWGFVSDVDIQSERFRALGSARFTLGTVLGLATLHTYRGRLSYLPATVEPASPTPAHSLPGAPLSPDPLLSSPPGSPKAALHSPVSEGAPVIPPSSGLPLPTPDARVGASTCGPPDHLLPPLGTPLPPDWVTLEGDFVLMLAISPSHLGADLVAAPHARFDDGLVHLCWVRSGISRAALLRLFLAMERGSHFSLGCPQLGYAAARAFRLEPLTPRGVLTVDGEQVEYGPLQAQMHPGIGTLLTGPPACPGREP
Source text: While some of the nucleotide changes were translationally silent, the altered human SphK2 (termed ‘SK2_MOD’) DNA encoded five amino acid changes (Glu71Asp, Gly138Ser, Glu146Asp, Glu437Gly, Gly623Ala).

[4] = test system: yeast strain CBY169; assay: toxicity for yeast (growth of strains without lipid kinase expression); details: yeast strain CBY169
Procedure: (§2) Yeast harboring plasmids were selected and maintained on synthetic complete media lacking uracil (SC-URA) with 2% glucose as the fermentable carbon source. After overnight growth at 30°C in this media, the cultures were diluted 1:100 into SC-URA media supplemented with 2% galactose and various concentrations of test inhibitor. After a further 24–48 hours incubation at 30°C, the extent of growth was assessed by measuring absorbance at 600 nm. […] Tubes were incubated in a rotating drum while plates were agitated using a plate mixer. A600 for 96-well plate cultures was determined using a Molecular Devices SpectraMax M5 plate reader. Test compounds were dissolved in DMSO at 40–50 mM and diluted into water containing 0.1% fatty acid free bovine serum albumin. In all cases, the DMSO concentration in the assay was less than 2% (v/v).
The salient limitations of the yeast assay are those of any cell-based assay. Namely, the assay reports EC50 values rather than Km, Vmax or kcat values of inhibitors, test compounds must not be markedly cytotoxic at the concentrations tested and compounds must accumulate to some extent in the yeast. Cytotoxicity is readily discerned by testing compounds for an effect on growth of strains without lipid kinase expression.

[5] = target: T1, human SphK2; assay: yeast growth rescue assay, strain KYA1 (PDR5 deleted) expressing human SphK2; format: cell-based
Source text: (§3) The yeast strains used in this study include JS1256 (MATa his3Δ1 leu2Δ0 met15Δ0 ura3Δ0) and CBY169 (MATα leu2-3,112 ura3-52 his4 trp1 rme1 dpl1Δ::TRP1 lcb3Δ::LEU2 lcb4Δ::kanMX lcb5Δ::kanMX) (the latter provided by Kyle Cunningham). The CBY169 strain was modified further by replacement of the PDR5 gene with a selectable marker (confers resistance to clonat) to generate strain KYA1 (MATα leu2-3,112 ura3-52 his4 trp1 rme1 dpl1Δ::TRP1 lcb3Δ::LEU2 lcb4Δ::kanMX lcb5Δ::kanMX pdr5Δ::natMX).
(§4) The plasmids pGAL-HsSPHK1, pGAL-HsSPHK2, pGAL-MmSphk1, pGAL-MmSphk1L277M, pGAL-MmSphk2, pGAL-HsCERK and pGAL-SK2_MOD used in this study were constructed by sub-cloning DNA encoding the indicated translational open reading frames into the pYES2-FLAG-URA expression vector (provided by Dr. Cungui Mao). The encoded proteins all have an amino terminal FLAG epitope tag ([…]) and their expression is under the control of the GAL1,10 promoter. Excepting human and mouse SphK2, the DNA sequences are synthetic (from GeneWiz LLC (South Plainfield, NJ)) and were optimized for expression in S. cerevisiae.

[6] = target: T3, human CerK (Homo sapiens, UniProt Q8TCT0); assay: yeast growth rescue assay, strain JS1256 (WT) expressing human CerK; format: cell-based; details: galactose media
T3 construct: constructed by sub-cloning DNA encoding the indicated translational open reading frames into the pYES2-FLAG-URA expression vector; expressed in transfected cells; host or cells: Saccharomyces cerevisiae JS1256, plasmid pGAL-HsCERK
T3 sequence (Q8TCT0 1-537): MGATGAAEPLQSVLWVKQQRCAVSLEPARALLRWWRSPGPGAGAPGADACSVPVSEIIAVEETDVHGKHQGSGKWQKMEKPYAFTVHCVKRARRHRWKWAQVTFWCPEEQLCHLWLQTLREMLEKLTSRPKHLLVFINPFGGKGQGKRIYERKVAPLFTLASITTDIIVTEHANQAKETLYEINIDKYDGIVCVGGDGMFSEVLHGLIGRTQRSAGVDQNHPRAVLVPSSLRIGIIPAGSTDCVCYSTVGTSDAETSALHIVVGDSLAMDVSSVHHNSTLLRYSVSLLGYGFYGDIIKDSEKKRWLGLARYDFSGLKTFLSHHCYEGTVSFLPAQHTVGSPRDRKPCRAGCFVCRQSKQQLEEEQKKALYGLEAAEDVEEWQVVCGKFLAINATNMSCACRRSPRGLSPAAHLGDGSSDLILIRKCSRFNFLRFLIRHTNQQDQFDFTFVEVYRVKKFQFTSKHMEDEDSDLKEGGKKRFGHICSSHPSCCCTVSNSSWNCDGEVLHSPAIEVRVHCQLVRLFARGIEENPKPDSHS
Source text: as §3, §4

[7] = target: T4, human SphK1 (Homo sapiens, UniProt Q9NYA1); assay: yeast growth rescue assay, strain CBY169 expressing human SphK1; format: cell-based; details: for rescue of growth in galactose media: strain CBY169 expressing human SphK1
T4 construct: constructed by sub-cloning DNA encoding the indicated translational open reading frames into the pYES2-FLAG-URA expression vector; expressed in transfected cells; host or cells: Saccharomyces cerevisiae CBY169 or KYA1, plasmid pGAL-HsSPHK1
Source text: as §1, §2

[8] = target: T4, human SphK1; assay: yeast growth rescue assay, strain KYA1 (PDR5 deleted) expressing human SphK1; format: cell-based
Source text: as §1, §2

[9] = target: sphingosine kinase; parameters: method as in PMID 21216217; details: cited from earlier work
[10] = target: recombinant human SphK1; parameters: method as in PMID 21216217; details: determined previously; cited from earlier work
[11] = test system: human and rat SphK1 and SphK2; parameters: method as in PMID 26243740; details: cited from earlier work
[12] = target: T5, mouse SphK1 L277M (Mus musculus, UniProt Q8CI15, L271M); assay: yeast growth rescue assay, mouse SphK1 L277M mutant versus wild type mouse SphK1; format: cell-based
T5 construct: constructed by sub-cloning DNA encoding the indicated translational open reading frames into the pYES2-FLAG-URA expression vector; expressed in transfected cells; host or cells: Saccharomyces cerevisiae (CBY169, printed 'CYA169', and KYA1), plasmid pGAL-MmSphk1L277M
Source text: as §1

T4 sequence (Q9NYA1 whole entry): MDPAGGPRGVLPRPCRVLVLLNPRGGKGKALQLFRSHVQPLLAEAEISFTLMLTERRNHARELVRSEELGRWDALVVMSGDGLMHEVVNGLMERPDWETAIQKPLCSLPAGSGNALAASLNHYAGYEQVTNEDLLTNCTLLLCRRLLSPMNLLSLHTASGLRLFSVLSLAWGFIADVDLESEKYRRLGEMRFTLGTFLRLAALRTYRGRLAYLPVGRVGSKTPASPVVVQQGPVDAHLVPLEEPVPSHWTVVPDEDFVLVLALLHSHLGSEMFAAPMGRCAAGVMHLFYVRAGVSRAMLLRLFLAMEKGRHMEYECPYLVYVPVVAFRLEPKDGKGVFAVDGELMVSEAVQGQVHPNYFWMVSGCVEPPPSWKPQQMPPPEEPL
T5 sequence (Q8CI15 1-388 isoform Q8CI15-2 L277M): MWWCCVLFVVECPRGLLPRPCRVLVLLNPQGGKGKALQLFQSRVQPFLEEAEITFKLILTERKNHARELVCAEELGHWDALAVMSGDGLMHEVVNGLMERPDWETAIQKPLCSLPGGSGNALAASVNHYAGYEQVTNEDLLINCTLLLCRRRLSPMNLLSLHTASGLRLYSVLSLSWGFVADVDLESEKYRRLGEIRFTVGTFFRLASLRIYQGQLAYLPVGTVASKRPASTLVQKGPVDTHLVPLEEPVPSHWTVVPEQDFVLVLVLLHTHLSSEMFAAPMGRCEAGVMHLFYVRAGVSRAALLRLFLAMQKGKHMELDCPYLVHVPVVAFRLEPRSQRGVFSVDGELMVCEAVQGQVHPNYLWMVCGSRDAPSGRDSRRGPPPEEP

## CCCCCCCCOc1ccc(-c2noc([C@@H]3CCCN3C(=N)N)n2)cc1C(F)(F)F [SLM6031434]
[1]
  phospho-LCB levels: decreased
[2]
  rescue of growth: rescued growth
[3]
  loss of potency: ~3 fold
[4]
  concentrations at which toxic for yeast: 2000 to 3000 nM
[5]; presence (CBY169) or absence (KYA1) of PDR5
  potency in CBY169 vs. KYA1 strains (PDR5p status): the same; also recorded: not different

## O=C(Nc1nc2ccc(NC(=O)C34CC5CC(CC(C5)C3)C4)cc2s1)c1ccccc1 [NVP-231]
[6]
  rescue of growth: growth was restored in a dose dependent fashion

## Oc1ccc(Nc2nc(-c3ccc(Cl)cc3)cs2)cc1 [SKI-II]
[2]
  rescue of growth: failed to rescue growth
[4]
  concentrations at which toxic for yeast: above 3 μM
[5]; strain KYA1 expressing human SphK2
  rescue of growth: failed to rescue growth
[7]
  rescue of growth in galactose media: failed to rescue growth
[8]
  rescue of growth: failed to rescue growth
[9]
  Ki: 12000 to 30000 nM

## CCCCCCCc1ccc(NC(=O)[C@@H](N)CCO)cc1 [9ab]
[10]
  Ki: 1400 to 1700 nM
[7]
  EC50: 900 nM

## CCCCCOc1ccc2cc(-c3noc([C@@H]4[C@@H](O)CCN4C(=N)N)n3)ccc2c1 [SLC5111312]
[2]
  rescue of growth: rescued growth
[11]
  potency at SphK1 versus SphK2: equipotent
[4]
  concentrations at which toxic for yeast: 2000 to 3000 nM
[7]
  rescue of growth in galactose media: restored full growth
[12]; mouse SphK1 L277M versus human SphK1, yeast growth rescue
  EC50 values for mutant mouse enzyme versus human enzyme: similar
[12]; yeast growth rescue
  potency at mutant (L277M) versus wild type mouse SphK1: distinctly more potent
